Data on twelve compounds can be found in patent publication US20230391772A1, “METHODS AND COMPOSITIONS FOR TARGETED PROTEIN DEGRADATION” (Ranok Therapeutics (Hangzhou) Co. Ltd., priority 2020, published 2023).

The IC50 is the concentration needed to halve the response being measured. A higher IC50 goes with a need for much substance. What is called EC50 is the concentration giving half of the maximal effect.

Bounds are passed on as bounds.

In assay [1] the target is T1, HSP90a protein (Homo sapiens, UniProt P07900).
T1 construct: purchased BPS Bioscience 50298
The assay can be described thus: HSP90α-binding fluorescent polarization (FP) assay, BODIPY-labeled RNK04010 probe. To be noted: FP competition with RNK04010 (BODIPY-labeled), 5 nM, 300 min at 25° C. The method in brief: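 Competitive FP with N-terminal HSP90a; probe at 5 nM final, either BODIPY-labeled triazolone RNK04010 or FITC-geldanamycin. Test compounds as 2.5-fold dilutions from 20 μM to 5.2 nM. Incubated at 25 °C for 300 min (RNK04010) or 120 min (FITC-geldanamycin) before reading polarization.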

In assay [2] the test system is NCI-H23 human non-small cell lung cancer. The assay can be described thus: NCI-H23 CCK-8 proliferation assay. It counts as cell-based. To be noted: NCI-H23 cells, 72 hr. As for the experimental part: The following cancer cell lines were employed: BT-474 human breast carcinoma (ATCC, #HTB-20); MIA PaCa-2 human pancreatic carcinoma [2 copies KRAS(G12C)](ATCC, #CRL-1420); NCI-H23 human non-small cell lung cancer [1 copy KRAS(G12C)](ATCC, #CRL-5800); NCI-H358 human non-small cell lung cancer [1 copy KRAS(G12C)](ATCC, #CRL-5807); LU65A human lung carcinoma (Pharmaron, Beijing, China). Cell lines were cultured essentially according to ATCC and Pharmaron recommendations.
Cancer Cell Line Proliferation (CCK-8) Assays
3-fold serial dilutions of each test compound were prepared ranging from 20 μM to 1.02 nM.
% Inhibition=100−(D−B)/(S−B)*100%. • S: Absorbance of cells treated with DMSO • D: Absorbance of compound-treated cells • B: Absorbance of medium with DMSO without cells
Background: Tetrazolium assays rely on reduction of a dye to a coloured formazan, in cell work by metabolically active cells.

Assay [3] has as its system NCI-H358 human non-small cell lung cancer. The assay can be described thus: NCI-H358 CCK-8 proliferation assay. It counts as cell-based. As to conditions: NCI-H358 cells, 72 hr. The method, boiled down:
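Compounds were tested as a 3-fold series from 20 μM down to 1.02 nM in CCK-8 absorbance assays. The lines used were NCI-H23 and NCI-H358, each with 1 KRAS(G12C) copy, and MIA PaCa-2 with 2 copies. Inhibition was derived relative to DMSO controls, with a no-cell blank subtracted.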

`C=CC(=O)N1CCN(c2nc(NCCC(=O)N3CCC(Cc4ccc(-n5c(C(=O)NCC(F)(F)F)nnc5-c5cc(C(C)C)c(O)cc5O)cc4)CC3)nc3c2CCN(c2cc(O)cc4ccccc24)C3)CC1` [Compound 11, 4-(4-((1-(3-((4-(4-acryloylpiperazin-1-yl)-7-(3-hydroxynaphthalen-1-yl)-5,6,7,8-tetrahydropyrido[3,4-d]pyrimidin-2-yl)amino)propanoyl)piperidin-4-yl)methyl)phenyl)-5-(2,4-dihydroxy-5-isopropylphenyl)-N-(2,2,2-trifluoroethyl)-4H-1,2,4-triazole-3-carboxamide, trifluoroacetic acid] had an IC50 in assay [1] above 1000 nM. The EC50 in assay [2] was above 1000 nM; in assay [3], 100 to 1000 nM.

Regarding `C=CC(=O)N1CCN(c2nc(OCCC(=O)N3CCC(CN4CCN(Cc5ccc(-n6c(O)nnc6-c6cc(C(C)C)c(O)cc6O)cc5)CC4)CC3)nc3c2CCN(c2cc(O)cc4ccccc24)C3)CC1` [Compound 15, 1-(4-(2-(3-(4-((4-(4-(3-(2,4-dihydroxy-5-isopropylphenyl)-5-hydroxy-4H-1,2,4-triazol-4-yl)benzyl)piperazin-1-yl)methyl)piperidin-1-yl)-3-oxopropoxy)-7-(3-hydroxynaphthalen-1-yl)-5,6,7,8-tetrahydropyrido[3,4-d]pyrimidin-4-yl)piperazin-1-yl)prop-2-en-1-one, trifluoroacetic acid], in assay [1], the IC50 was below 100 nM. Besides, the EC50 in assay [2] and in assay [3] was 100 to 1000 nM in each case.

Take `C=CC(=O)N1CCN(c2nc(NCCC(=O)N[C@H](C)c3ccc(CN4CCC(Cc5ccc(-n6c(O)nnc6-c6cc(C(C)C)c(O)cc6O)cc5)CC4)cc3)nc3c2CCN(c2cc(O)cc4ccccc24)C3)CC1` [Compound 18, (R)-3-((4-(4-acryloylpiperazin-1-yl)-7-(3-hydroxynaphthalen-1-yl)-5,6,7,8-tetrahydropyrido[3,4-d]pyrimidin-2-yl)amino)-N-(1-(4-((4-(4-(3-(2,4-dihydroxy-5-isopropylphenyl)-5-hydroxy-4H-1,2,4-triazol-4-yl)benzyl)piperidin-1-yl)methyl)phenyl)ethyl)propanamide, trifluoroacetic acid]: the IC50 in assay [1] fell in the range of 100 to 1000 nM. The EC50 in assay [2] and in assay [3] was 100 to 1000 nM throughout.

With `C=CC(=O)N1CCN(c2nc(NCCC(=O)N3CCC(Cc4ccc(CN(C)Cc5ccc(-n6c(O)nnc6-c6cc(C(C)C)c(O)cc6O)cc5)cc4)CC3)nc3c2CCN(c2cc(O)cc4ccccc24)C3)CC1` [Compound 19, 1-(4-(2-((3-(4-(4-(((4-(3-(2,4-dihydroxy-5-isopropylphenyl)-5-hydroxy-4H-1,2,4-triazol-4-yl)benzyl)(methyl)amino)methyl)benzyl)piperidin-1-yl)-3-oxopropyl)amino)-7-(3-hydroxynaphthalen-1-yl)-5,6,7,8-tetrahydropyrido[3,4-d]pyrimidin-4-yl)piperazin-1-yl)prop-2-en-1-one, trifluoroacetic acid], in assay [1], the IC50 is 100 to 1000 nM. In addition, the EC50 in assay [2] and in assay [3] was 100 to 1000 nM in each case.

In turn, `CCCc1cc(-c2nnc(O)n2-c2ccc(CN3CCN(CC4CCN(C(=O)CCNc5nc6c(c(N7CCN(C(C)=O)CC7)n5)CCN(c5cc(O)cc7ccccc57)C6)CC4)CC3)cc2)c(O)cc1O` [Compound 59, 3-((4-(4-acetylpiperazin-1-yl)-7-(3-hydroxynaphthalen-1-yl)-5,6,7,8-tetrahydropyrido[3,4-d]pyrimidin-2-yl)amino)-1-(4-((4-(4-(3-(2,4-dihydroxy-5-propylphenyl)-5-hydroxy-4H-1,2,4-triazol-4-yl)benzyl)piperazin-1-yl)methyl)piperidin-1-yl)propan-1-one, trifluoroacetic acid] yielded a half-maximal inhibitory concentration (IC50) in assay [1] of 100 to 1000 nM. Moreover, the EC50 in assay [2] is above 1000 nM; in assay [3], 100 to 1000 nM.

Compound `CC(=O)N1CCN(c2nc(NCCC(=O)N[C@H](C)c3ccc(CN4CCC(Cc5ccc(-n6c(O)nnc6-c6cc(C(C)C)c(O)cc6O)cc5)CC4)cc3)nc3c2CCN(c2cc(O)cc4ccccc24)C3)CC1` [Compound 60, (R)-3-((4-(4-acetylpiperazin-1-yl)-7-(3-hydroxynaphthalen-1-yl)-5,6,7,8-tetrahydropyrido[3,4-d]pyrimidin-2-yl)amino)-N-(1-(4-((4-(4-(3-(2,4-dihydroxy-5-isopropylphenyl)-5-hydroxy-4H-1,2,4-triazol-4-yl)benzyl)piperidin-1-yl)methyl)phenyl)ethyl)propanamide, trifluoroacetic acid] yielded an IC50 in assay [1] below 100 nM. For the same compound, the EC50 is above 1000 nM in assay [2] and 100 to 1000 nM in assay [3].

In assay [1], `CCC(=O)N1CCN(c2nc(NCCC(=O)N[C@H](C)c3ccc(CN4CCC(Cc5ccc(-n6c(O)nnc6-c6cc(C(C)C)c(O)cc6O)cc5)CC4)cc3)nc3c2CCN(c2cc(O)cc4ccccc24)C3)CC1` [Compound 61] showed an IC50 below 100 nM. Moreover, the EC50 was above 1000 nM in assay [2] and 100 to 1000 nM in assay [3].

In the case of `CCc1cc(-c2nnc(C(N)=O)n2-c2ccc(CN3CCN(CC4CCN(C(=O)CCNc5nc6c(c(N7CCN(C(C)=O)CC7)n5)CCN(c5cc(O)cc7ccccc57)C6)CC4)CC3)cc2)c(O)cc1O` [Compound 69, 4-(4-((4-((1-(3-((4-(4-acetylpiperazin-1-yl)-7-(3-hydroxynaphthalen-1-yl)-5,6,7,8-tetrahydropyrido[3,4-d]pyrimidin-2-yl)amino)propanoyl)piperidin-4-yl)methyl)piperazin-1-yl)methyl)phenyl)-5-(5-ethyl-2,4-dihydroxyphenyl)-4H-1,2,4-triazole-3-carboxamide, trifluoroacetic acid], in assay [1], the IC50 is below 100 nM. In addition, the EC50 was above 1000 nM in assay [2] and 100 to 1000 nM in assay [3].

In assay [1], `C=CC(=O)N1CCN(c2nc(NCCC(=O)N3CCC(CN4CCN(Cc5ccc(-n6c(C(N)=O)nnc6-c6cc(CC)c(O)cc6O)cc5)CC4)CC3)nc3c2CCN(c2cc(O)cc4ccccc24)C3)CC1` [Compound 71, 4-(4-((4-((1-(3-((4-(4-acryloylpiperazin-1-yl)-7-(3-hydroxynaphthalen-1-yl)-5,6,7,8-tetrahydropyrido[3,4-d]pyrimidin-2-yl)amino)propanoyl)piperidin-4-yl)methyl)piperazin-1-yl)methyl)phenyl)-5-(5-ethyl-2,4-dihydroxyphenyl)-4H-1,2,4-triazole-3-carboxamide] returned an IC50 below 100 nM. In addition, the EC50 is above 1000 nM in assay [2] and 100 to 1000 nM in assay [3].

Regarding `CCC(=O)N1CCN(c2nc(NCCC(=O)N3CCC(CN4CCN(Cc5ccc(-n6c(C(N)=O)nnc6-c6cc(CC)c(O)cc6O)cc5)CC4)CC3)nc3c2CCN(c2cc(O)cc4ccccc24)C3)CC1` [Compound 75, 5-(5-ethyl-2,4-dihydroxyphenyl)-4-(4-((4-((1-(3-((7-(3-hydroxynaphthalen-1-yl)-4-(4-propionylpiperazin-1-yl)-5,6,7,8-tetrahydropyrido[3,4-d]pyrimidin-2-yl)amino)propanoyl)piperidin-4-yl)methyl)piperazin-1-yl)methyl)phenyl)-4H-1,2,4-triazole-3-carboxamide, trifluoroacetic acid], the IC50 in assay [1] is below 100 nM. Also, the values for the EC50 in assay [2] and in assay [3] were above 1000 nM and 100 to 1000 nM, respectively.

For the compound `C=CC(=O)N1CCN(c2nc(NCCC(=O)N3CCC(CN4CCN(Cc5ccc(-n6c(O)nnc6-c6cc(C(C)C)c(O)cc6O)cc5)CC4)CC3)nc3c2CCN(c2cccc4ccccc24)C3)C[C@H]1CC#N` [Compound 78, (R)-2-(1-acryloyl-4-(2-((3-(4-((4-(4-(3-(2,4-dihydroxy-5-isopropylphenyl)-5-hydroxy-4H-1,2,4-triazol-4-yl)benzyl)piperazin-1-yl)methyl)piperidin-1-yl)-3-oxopropyl)amino)-7-(naphthalen-1-yl)-5,6,7,8-tetrahydropyrido[3,4-d]pyrimidin-4-yl)piperazin-2-yl)acetonitrile], the IC50 in assay [1] is below 100 nM. Moreover, the EC50 in assay [2] and in assay [3] was 100 to 1000 nM each time.

As to `C=CC(=O)N1CCN(c2nc(NCCC(=O)N3CCC(CN4CCN(Cc5ccc(-n6c(O)nnc6-c6cc(C(C)C)c(O)cc6O)cc5)CC4)CC3)nc3c2CCN(c2cccc4cccc(Cl)c24)C3)C[C@H]1CC#N` [Compound 87, (R)-2-(1-acryloyl-4-(7-(8-chloronaphthalen-1-yl)-2-((3-(4-((4-(4-(3-(2,4-dihydroxy-5-isopropylphenyl)-5-hydroxy-4H-1,2,4-triazol-4-yl)benzyl)piperazin-1-yl)methyl)piperidin-1-yl)-3-oxopropyl)amino)-5,6,7,8-tetrahydropyrido[3,4-d]pyrimidin-4-yl)piperazin-2-yl)acetonitrile, trifluoroacetic acid], the IC50 in assay [1] was in the range of 100 to 1000 nM. The EC50 in assay [2] and in assay [3] was 100 to 1000 nM each time.
